For series [1] the following is noted: cited from earlier work; for ΔpH @ −20° C.: pH shift during freezing.
The conditions of series [2]: cited from earlier work.
Series [3] can be described thus: Solubility of taurolidine polymorphs in aqueous citric acid. It counts as physicochemical. As to conditions: in 26.1 mg/mL aqueous citric acid, at T=25° C. As to the method:
Taurolidine Polymorphs A and B synthesized according to the Present Synthesis may both be soluble in 26.1 mg/mL aqueous citric acid, at T=25° C.

The nature of series [4]: Long term stability tests of taurolidine solution with citric acid and sodium citrate. Type of series: physicochemical. The note with it: citric acid and sodium citrate in combination; compared with taurolidine solution prepared with polyvinylpyrrolidone (PVP). An excerpt: The composition employed in the practice of the present invention preferably also contains a pharmacologically acceptable carrier solution, such as, water for injection.

Where two headings read alike, the source gives them in different places.

For orientation: pKa means the negative logarithm of the acid dissociation constant.

Consider `CC(=O)O` [Acetic acid], for which, in series [1], the “pH @ 25° C.” value is listed as 5.6 and the “ΔpH @ −20° C.” value is given as “+0.5”.

As for `O=C(O)CC(O)(CC(=O)O)C(=O)O` [Citric acid], in series [1], the “pH @ 25° C.” value is 6.2 and the “ΔpH @ −20° C.” value is listed as −0.2.

Regarding `N[C@@H](CCC(=O)O)C(=O)O` [Glutamic acid], the figures for the pKa in series [2] (second pKa value) and in series [2] (third pKa value printed in the cell) were 4.1 and 9.5, respectively.

`N[C@@H](Cc1c[nH]cn1)C(=O)O` [Histidine]: in series [1], the “pH @ 25° C.” value is given as 5.4 and the “ΔpH @ −20° C.” value was “+0.8”.

For `O=C(O)CC(O)C(=O)O` (stereo not drawn) [Malic acid], the pKa in series [2] (second pKa value) is reported as 3.4, 5.1. Also, in series [1], the “pH @ 25° C.” value was 5.0 and the “ΔpH @ −20° C.” value is given as −0.3.

Regarding `O=S1(=O)CCN(CN2CCS(=O)(=O)NC2)CN1` [Polymorph A, taurolidine], the solubility entry in series [3] is “soluble”.

For the compound `NC(CO)(CO)CO` [Tromethamine], in series [1], the “pH @ 25° C.” value is on record as 7.2 and the “ΔpH @ −20° C.” value is reported as “+2.1”.

For the compound `O=S1(=O)CCN(CN2CCS(=O)(=O)NC2)CN1` [taurolidine], the “stability and solubility of taurolidine in solution” value in series [4] was “increases the stability and solubility”.

(Values after patent US11738120B1, “Synthesis of taurolidine, purity profiles and polymorphs” (CorMedix Inc., priority 2022, dated 2023).)
